Source: patent US12053549B2, “Laxative tablet” (SETOLAS Holdings, Inc., priority 2018, dated 2024)

Assay: Volume-based 50% particle diameter (D50) of raw materials by laser diffractometry
Format: physicochemical
Conditions: raw material
Method: 0.7 g of magnesium oxide was placed in a beaker with 70 mL of 0.2% sodium hexametaphosphate solution, and the mixture was subjected to dispersion treatment (3 minutes) using an ultrasonic homogenizer (Nippon Seiki, US-300). The volume-based 50% particle size (D50) of the magnesium oxide was then measured using a laser diffraction scattering particle size analyzer (Nikkiso, Microtrac).

## [O]=[Mg] [Magnesium oxide]
  volume-based 50% particle size (D50): 6.5 μm
